Results published in patent publication US20040072230A1, “Human SORBS1 genetic variations contribute to insulin resistance, obesity, type 2 diabetes, and hypertension” (priority 2002, published 2004).

System: SH3P12/CAP/ponsin mRNA
Experiment: SH3P12/CAP/ponsin mRNA level in differentiated 3T3-L1 adipocytes after BRL49653
Assay type: cell-based, murine
Details: BRL49653 4.5 μM for 16 hours added to well-differentiated 3T3-L1 adipocytes on day 6; 8.25 fold in the absence of BRL49653

CN(CCOc1ccc(CC2SC(=O)NC2=O)cc1)c1ccccn1 (stereo not shown) [BRL49653, rosiglitazone]
level of SH3P12/CAP/ponsin mRNA, fold higher than pre-induction levels: 17.6 fold
